# Data from patent US12246005B2, “5-methoxy-n,n-dimethyltryptamine (5-MeO-DMT) formulations” (Beckley Psytech Limited, priority 2023, dated 2025).
# Entries after “also recorded” stand apart in the source; their conditions may differ. Where a name gives a salt, the structure may show the parent alone.
# Experiments:
# [1] = Thermal decomposition properties of salt forms (TGA); format: physicochemical
# Description: The thermal decomposition properties of a range of salt forms of 5-MeO-DMT has been investigated and is summarised in the report below: […]
# [2] = Phase 1 single ascending dose study of liquid intranasal 5-MeO-DMT HCl formulation; format: in vivo, human; conditions: liquid intranasal formulation, 5, 8, 10, 11 and 14 mg, healthy subjects
# Description: (§1) The applicant has funded double-blind, randomized, Phase 1, single ascending dose studies to evaluate the safety, tolerability and pharmacokinetic profile of intranasal 5-MeO-DMT hydrochloride and intranasal 5-MeO-DMT benzoate in healthy subjects. […] It is desirable that a compound for use in treatment has dose-proportional pharmacokinetics, for example, to facilitate dose and dose regimen adjustment in patients. In an embodiment, there is provided a salt of 5-MeO-DMT with dose-proportional pharmacokinetics, optionally for use in the methods disclosed herein. In an embodiment, the salt of 5-MeO-DMT with dose-proportional pharmacokinetics is the benzoate or HBr salt, optionally the benzoate salt. A double-blind, randomized, Phase 1, single ascending dose study to evaluate the safety, tolerability and pharmacokinetic profile of a liquid intranasal 5-MeO-DMT HCl (5-MeO-DMT HCl, HPMC, water for injection (WFI) and a sodium hydroxide solution to adjust pH) formulation in healthy subjects was performed.
# [3] = Phase 1 single ascending dose study of intranasal 5-MeO-DMT benzoate (safety, tolerability, pharmacokinetics); format: in vivo, human
# Description: as §1
# A double-blind, randomized, Phase 1, single ascending dose study to evaluate the safety, tolerability and pharmacokinetic profile of intranasal 5-MeO-DMT benzoate in healthy subjects was performed.
# [4] = Solubility studies of lyophilised amorphous form (dissolution rate); format: physicochemical
# Description: Amorphous 5-MeO-DMT salt formulations have been produced via lyophilisation processes. It is noted that in some cases these have low glass transition temperatures. Conversion to a crystalline form may therefore occur, perhaps rapidly.
# [5] = Irritation tolerability; conditions: in particular when compared to the chloride salt
# [6] = Previous preclinical work in dogs defining maximum exposure limits; conditions: dog, in vivo
# [7] = Hygroscopicity; format: physicochemical
# Description: In an embodiment, the formulation is non-hygroscopic. […] Hygroscopicity is the phenomenon of attracting and holding water molecules via either adsorption or absorption from the surrounding environment. Pharmaceuticals that pick up less than 0.2% moisture at 80% RH are considered non hygroscopic. […] Pharmaceuticals that pick up more than 15.0% moisture at 80% RH are considered very hygroscopic. Hygroscopic substances are difficult to handle and costly and burdensome measures must be taken in order to ensure they are not exposed to moisture during process and formulation. Exposed to moisture, hygroscopic substances can take on water and convert to a hydrous form. This presents several disadvantages. First, the hydrous forms may have the disadvantage of being less bioavailable and less dissoluble than the anhydrous forms. Second, the variation in the amount of hydrous versus anhydrous substance from batch to batch could fail to meet specifications set by drug regulatory agencies. […] Fourth, in addition to problems caused by introduction of moisture during the processing of these hygroscopic substances, the potential for absorbance of moisture during storage and handling would adversely affect the dissolubility of the drug substance.
# [8] = at 20° C. water; cited from earlier work
molecule,measurement,setting,value
5-MeO-DMT glycolate,TGA Guidance: decomposition temperature,[1],"Melt 95° C., gross dcomp starts 170 °C"
5-MeO-DMT malate,TGA Guidance: decomposition temperature,[1],"Melt 100° C, gross dcomp starts 250 °C"
5-MeO-DMT tartrate,TGA Guidance: decomposition temperature,[1],"Melt ~140° C., decomp ~200 °C"
"COc1ccc2[nH]cc(CCN(C)C)c2c1.Cl [5-MeO-DMT HCl, 5-MeO-DMT hydrochloride]",dose proportionality of pharmacokinetics,[2],does not display dose-proportional pharmacokinetics
COc1ccc2[nH]cc(CCN(C)C)c2c1.O=C(O)c1ccccc1 [5-MeO-DMT benzoate],dose proportionality of pharmacokinetics,"[3]; intranasal single ascending dose, healthy subjects",exhibits dose-proportional pharmacokinetics; also recorded: approximately dose linear
same,mean Cmax,"[3]; intranasal, 12 mg dosage, healthy subjects, plasma 5-MeO-DMT",0.029 µg/mL
same,mean Tmax,"[3]; intranasal, healthy subjects",9.5 min
same,mean half-life (T1/2),"[3]; intranasal, healthy subjects",21 min
same,TGA Guidance: decomposition temperature,[1],~220 °C
same,TGA Guidance: mass loss,[1],full mass loss
same,dissolution rate,[4],almost instantaneous dissolution rate
same,irritation tolerability,[5],good irritation tolerability
"COc1ccc2[nH]cc(CCN(C)C)c2c1.O=S(=O)(O)c1ccccc1 [Benzenesulfonate, 5-MeO-DMT benzenesulfonate]",TGA Guidance: decomposition temperature,[1],"Melt 76° C., gross dcomp starts 280 °C"
CN(C)CCc1c[nH]c2ccc(O)cc12 [Bufotenin],detection of metabolite in plasma,"[3]; after intranasal 5-MeO-DMT benzoate, 6 mg dose level, after the 16 minutes timepoint",only detected at very low levels
"COc1ccc2[nH]cc(CCN(C)C)c2c1 [Example 5-MeO-DMT, 5-methoxy-N,N-dimethyltryptamine]",AUC,[6]; read-out: maximum exposure limit AUC,0.22 µg·h/mL
same,Cmax,[6]; read-out: maximum exposure limit Cmax,0.421 µg/mL
"COc1ccc2[nH]cc(CCN(C)C)c2c1 [Fumarate, 5-MeO-DMT fumarate]",TGA Guidance: decomposition temperature,[1],Decomp around 200 °C
"Br.COc1ccc2[nH]cc(CCN(C)C)c2c1 [Hydrobromide, 5-MeO-DMT hydrobromide]",TGA Guidance: decomposition temperature,[1],"Melt 149° C., gross dcomp starts 220 °C"
same,hygroscopicity,[7],non-hygroscopic
"COc1ccc2[nH]cc(CCN(C)C)c2c1 [Ketoglutarate, 5-MeO-DMT ketoglutarate]",TGA Guidance: decomposition temperature,[1],"Melt 85° C., gross dcomp starts 170 °C"
"COc1ccc2[nH]cc(CCN(C)C)c2c1.O=C(O)C(=O)O [Oxalate, 5-MeO-DMT oxalate]",TGA Guidance: mass loss,[1],"Melts 176° C., full mass loss"
"COc1ccc2[nH]cc(CCN(C)C)c2c1 [Phosphate, 5-MeO-DMT phosphate]",TGA Guidance: decomposition temperature,[1],Decomp around 200 °C
"COc1ccc2[nH]cc(CCN(C)C)c2c1 [Saccharinate, 5-MeO-DMT saccharinate]",TGA Guidance: decomposition temperature,[1],"Melt 80° C., gross dcomp starts 180 °C"
"COc1ccc2[nH]cc(CCN(C)C)c2c1 [Tosylate, 5-MeO-DMT tosylate]",TGA Guidance: decomposition temperature,[1],"Melt 110° C, gross dcomp starts 280 °C ° C."
isomalt,Solubility,[8],42 g/100 g solution
